From ChEMBL document CHEMBL1201862, “PubChem BioAssay data set” (2004) come the findings set out here.

Active and inactive are the calls of the source. Cut-off read from the data, not from the text of the source, for most assays here: actives have a measured EC50 and inactives only a lower limit. Some results are limits rather than exact numbers.

The target in test [1] is T1, Heat shock factor protein 1 (Mus musculus, UniProt P38532).
T1 sequence (P38532 whole entry): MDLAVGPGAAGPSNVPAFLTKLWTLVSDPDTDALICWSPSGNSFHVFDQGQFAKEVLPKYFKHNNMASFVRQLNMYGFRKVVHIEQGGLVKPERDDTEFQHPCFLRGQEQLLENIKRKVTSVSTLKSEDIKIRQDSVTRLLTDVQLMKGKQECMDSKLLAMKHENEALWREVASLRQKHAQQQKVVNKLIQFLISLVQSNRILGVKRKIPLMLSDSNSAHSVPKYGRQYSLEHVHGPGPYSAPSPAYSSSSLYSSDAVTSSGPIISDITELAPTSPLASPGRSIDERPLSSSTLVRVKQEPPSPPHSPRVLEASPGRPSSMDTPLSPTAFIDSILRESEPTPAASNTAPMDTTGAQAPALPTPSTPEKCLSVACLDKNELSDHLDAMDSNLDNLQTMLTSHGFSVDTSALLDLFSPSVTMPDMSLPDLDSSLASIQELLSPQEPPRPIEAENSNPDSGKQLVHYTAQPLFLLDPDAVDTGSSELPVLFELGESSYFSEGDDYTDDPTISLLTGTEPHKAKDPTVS
In words: inhibition of MG132-induced HSE-luciferase signal, confirmation, cell-based, NIH3T3, luminescence, dose retest (AID 2382).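 Note: NIH3T3 fibroblasts with HSF1-driven luciferase reporter stressed by proteasome inhibitor MG132; luminescence from HSF1-driven luciferase expression after 8 hours of MG132 stress.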 The format is functional.

Test [2] can be described thus: inhibitors of intracellular T. cruzi replication, confirmation, NIH3T3 host cells, beta-gal luminescence (AID 2044).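 Note: intracellular parasites grown in NIH/3T3 mouse fibroblasts as host cells; luminescent beta-galactosidase reporter signal from transgenic T. cruzi replicating inside host cells; inhibitors lower the luminescence signal.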 The format is functional, cell-based.
Test [3] can be described thus: cytotoxicity toward NIH3T3 fibroblasts, dose response, counter-screen, cell-based, ATP luminescence, mouse fibroblasts (AID 2010).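 Note: cells exposed to compound for about 90 hours before reading.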 The format is functional. In general terms: The purpose of a counterscreen is to sort out artefacts and off-target activity.
Test [4] in a line: Luminescence Cell-Based Dose Retest to Confirm Inhibitors of Cancer Stem Cells. [Related pubchem assays (depositor defined):AID2717, AID2721]. The test is classed as functional. As to conditions: Homo sapiens.
Test [5] concerns the target T2, Corticotropin-releasing factor receptor 2/Corticotropin-releasing factor-binding protein (Homo sapiens, UniProt P24387+Q13324).
T2 sequence (Q13324 whole entry): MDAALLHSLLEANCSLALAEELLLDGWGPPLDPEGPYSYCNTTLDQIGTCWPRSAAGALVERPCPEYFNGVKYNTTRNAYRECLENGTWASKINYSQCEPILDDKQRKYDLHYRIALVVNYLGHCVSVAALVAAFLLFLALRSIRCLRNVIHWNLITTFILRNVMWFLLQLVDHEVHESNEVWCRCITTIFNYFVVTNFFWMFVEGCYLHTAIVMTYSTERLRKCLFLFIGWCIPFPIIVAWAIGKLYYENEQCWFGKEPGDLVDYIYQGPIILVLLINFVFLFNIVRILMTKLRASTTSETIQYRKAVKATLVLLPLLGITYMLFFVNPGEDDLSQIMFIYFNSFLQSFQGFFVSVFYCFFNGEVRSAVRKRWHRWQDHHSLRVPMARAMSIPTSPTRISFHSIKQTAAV
T2 sequence (P24387 whole entry): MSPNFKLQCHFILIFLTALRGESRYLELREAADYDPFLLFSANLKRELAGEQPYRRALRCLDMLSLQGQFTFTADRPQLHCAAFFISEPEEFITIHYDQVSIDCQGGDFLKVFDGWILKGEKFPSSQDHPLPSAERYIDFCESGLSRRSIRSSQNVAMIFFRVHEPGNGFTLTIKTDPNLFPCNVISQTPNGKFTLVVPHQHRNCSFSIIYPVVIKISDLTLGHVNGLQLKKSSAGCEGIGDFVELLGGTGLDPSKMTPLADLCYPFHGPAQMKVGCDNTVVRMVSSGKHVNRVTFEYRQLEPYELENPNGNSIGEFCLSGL
The test is described as follows: activators of CRF receptor 2 with binding protein – uHTS hits, confirmation (AID 602473). The test is classed as functional. As to conditions: read-out: EC50_Mean.

Test [6] in a line: growth suppression of PTEN-null colon cells, dose response, cell-based, HCT116 PTEN knockout (AID 1047).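 Note: HCT116 colon tumor cells with PTEN knocked out; cells exposed to compound for 60 hours before readout; potency for loss of cell viability measured by luminescence.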 The test is classed as functional.
A short description of test [7]: growth suppression of beta-catenin-knockout colon cells, dose response, cell-based, HCT116, human colon tumor (AID 1045).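 Note: HCT116 colon tumor cells with beta catenin knocked out; cells exposed to compound for 60 hours.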 The test is classed as functional.
In test [8] the test system is Streptococcus. In words: Group A Streptococcus viability loss, dose response, counter-screen for streptokinase expression inhibitor project, luminescence, BacTiterGlo (AID 1915).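 Note: potency for reduction of bacterial viability or growth.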 The format is functional, organism-based.
Test [9] relates to Streptococcus sp. 'group A'. The test is described as follows: growth inhibition of control SK(-) GAS strain, dose response, counter-screen for streptokinase expression inhibitor project, luminescence, kanamycin, BacTiterGlo, confirmation (AID 1900). The format is functional, organism-based.

Broadly, the AC50 is the midpoint of the concentration-response curve, whichever way the signal moves.
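Throughout, for AC50: cells exposed to compound for roughly 70 hours or longer before luminescence read.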

On to `CCN(Cc1ccccc1)C(=O)C1CCN(Cc2sccc2C)CC1`, for which the EC50 in [1] is given as > 195 µM (not active).

Take `COc1cc(C2SCC(=O)N2CCCN(C)C)cc(OC)c1OC` (stereo not drawn): the values for the EC50 in [2] and in test [3] were 0.264 µM (active) and > 60 µM (not active), respectively.

`CCn1c(=O)c2c3c(sc2n2cnnc12)CCC3`: the EC50 in [1] is recorded as > 195 µM (not active).

With `Cc1ccc(-n2c(SCC(=O)N3c4ccccc4Sc4ccccc43)nnc2-c2ccncc2)cc1`, the EC50 in [2] was 0.345 µM (active); in test [3], > 60 µM (not active).

On to `CCOC(=O)c1c(NC(=O)c2nn(CC)cc2Br)sc2c1CCCCC2`, for which the AC50 in [4] is 1.12 µM (active).

`COc1ccc(Cl)cc1NC(=O)CN(C)C(=O)Cn1cnc2c1c(=O)n(C)c(=O)n2C`: the EC50 in test [1] is > 195 µM (not active).

`COc1ccc(CN(C(=O)Cc2cccs2)C(C(=O)NC2CCCC2)c2ccncc2)cc1` (stereo not drawn): the EC50 in test [2] was 2.22 µM (active); in [3] it was 50.8 µM (active).

As for `Cc1cccc(C)c1OCc1cc(C(=O)N2C[C@@H]3C[C@H]4C[C@@H](C3)C[C@@H]2C4)no1`, the AC50 in test [4] is 1.27 µM (active).

Take `CC1CC1C(=O)N1CCN(S(=O)(=O)c2cc(C(F)(F)F)cc(C(F)(F)F)c2)CC1` (stereo not drawn): the AC50 in test [4] was 2.76 µM (active).

`CN(C)c1ccc(CNc2ccc3c(c2)ncn3C(C)(C)C)cc1`: the EC50 in test [1] was 169 µM (active).

On to `CCCNC(=O)Cn1c(=O)/c(=C/c2ccc(-c3ccc([N+](=O)[O-])cc3)o2)s/c1=C\C(=O)C(C)(C)C`, for which, in test [5], the EC50 was 2.05 µM (active).

With `CC1(C)C(=O)N(c2ccccc2)C1c1ccccc1O` (stereo not drawn), the AC50 in test [4] is 2.95 µM (active).

As to `CC(NC(=O)c1cccnc1)C(c1cccs1)N1CCOCC1` (stereo not drawn), the EC50 in test [2] and in [3] was > 60 µM (not active) each time.

`COc1cc(OC)c(OC)cc1CN1CCCC(C(=O)c2ccccc2SC)C1` (stereo not drawn): the values for the EC50 in test [2] and in [3] were 0.138 µM (active) and > 60 µM (not active), respectively.

Consider `Clc1cccc(Nc2nc(-c3cccnc3)cs2)c1`, for which the EC50 is 1.23 µM (active) in test [2] and > 60 µM (not active) in test [3].

With `COC(=O)NC(=S)Nc1ccc(Oc2ccc(Cl)cc2Cl)c(Cl)c1`, the EC50 in test [2] was 1.83 µM (active); in test [3], > 60 µM (not active).

Turning to `COc1cc2c(cc1OC)C(c1cc3cccc(C)c3nc1O)N(C(=O)c1ccco1)CC2` (stereo not drawn), the EC50 in test [2] was 3.44 µM (active); in test [3], 10.5 µM (active).

As for `COc1ccc(CN2CCN(Cc3ccc(C)cc3)CC2)c(OC)c1`, the EC50 in test [2] was 0.22 µM (active); in test [3] it was > 60 µM (not active).

For `CCOC(=O)Cn1c(COc2ccccc2OC)[n+](C)c2ccccc21`, the EC50 in test [1] is listed as > 195 µM (not active).

For `O=C(CCc1ccccc1)Nc1ncc([N+](=O)[O-])s1`, the EC50 in test [2] is 0.951 µM (active); in test [3], > 60 µM (not active).

`Nc1ccc(C23CC4CC(CC(O)(C4)C2)C3)cc1`: the EC50 in test [1] is 41.2 µM (active).

As to `Cc1cc(=O)oc2cc(OCC#N)ccc12`, in test [1], the EC50 is on record as > 195 µM (not active).

For `O=[N+]([O-])c1cn(-c2nc(-c3ccco3)cc(C(F)(F)F)n2)cn1`, the EC50 was 0.723 µM (active) in test [2] and > 30 µM (not active) in test [3].

As for `O=C(Nc1ccc(Cl)c(Cl)c1)Nc1cc(S(=O)(=O)N2CCOCC2)ccc1N1CCCC1`, the EC50 was 22.5 µM (active) in [6] and 20.3 µM (active) in test [7].

Turning to `O=c1cc(N2CCCCC2)c(-c2ccccc2)nn1Cc1cccc(Cl)c1`, the AC50 in test [4] is 3.6 µM (active).

As to `COc1ccc(-c2nc3ccccc3c(=O)n2-c2cccnc2)cc1`, the EC50 in [1] is > 195 µM (not active).

As to `Cc1cccc(NC(=O)c2cc(-c3cc(C)cc(C)c3O)[nH]n2)c1`, the AC50 in test [4] was 2.86 µM (active).

Regarding `Cc1cccc(NC(=O)CSCC(=O)Nc2cc(Cl)ccc2N2CCN(C)CC2)c1`, the EC50 is 2.41 µM (active) in [2] and > 60 µM (not active) in [3].

As for `Cc1cc(Br)c(NC(=O)CN2CC=C(c3ccccc3)CC2)c(Br)c1`, the EC50 was 0.255 µM (active) in test [2] and > 60 µM (not active) in [3].

Regarding `CCOC(=O)c1c(NC(=O)Cc2ccccc2)sc2c1CCN(C)C2`, the results for the EC50 in [2] and in [3] were 0.109 µM (active) and > 60 µM (not active), respectively.

In the case of `O=C(Nc1cc(C(F)(F)F)ccc1Cl)c1cccnc1`, in [5], the EC50 was > 53 µM (inactive).

Turning to `COc1ccc(N2CCN(c3ncnc4scc(-c5ccc(C)cc5)c34)CC2)cc1`, the EC50 in [2] was 2.69 µM (active); in test [3], > 60 µM (not active).

With `CC1CCN(CC(=O)NC2CCCCC2)CC1`, in test [1], the EC50 is reported as > 195 µM (not active).

`CN(C)c1nc(NCc2ccccc2)nc(SCC(=O)Nc2ccc(Cl)c(Cl)c2)n1`: the values for the EC50 in [2] and in test [3] were 2.15 µM (active) and > 60 µM (inconclusive), respectively.

Regarding `Cn1c(NC(=O)c2ccccc2NC(=O)C(C)(C)C)nc2ccccc21`, the EC50 in test [1] is recorded as > 195 µM (not active).

With `CCCCCn1nc(C)c(/C=N\NC(=O)c2cc(C)oc2C)c1C`, the EC50 in test [5] was > 53 µM (inactive).

In the case of `O=C(N/N=C/c1cc(Br)cc(Br)c1O)c1cccc(S(=O)(=O)N2CCOCC2)c1`, the EC50 in test [8] was 3.91 µM (active); in test [9] it was 0.765 µM (active).

Take `CCc1cc2c(NCCC(=O)O)nc(C)nc2s1`: the EC50 in test [1] is recorded as > 195 µM (not active).

For `COc1ccccc1-n1c(S)nnc1CNC(=O)c1cccc([N+](=O)[O-])c1C`, the EC50 in test [1] is on record as > 195 µM (not active).

For the molecule `C=CCOCCN(CCOCC=C)C1=NS(=O)(=O)c2ccccc21`, in test [1], the EC50 is > 195 µM (not active).

For `O=C(CCCCn1c(=O)[nH]c2ccsc2c1=O)NCc1cccnc1`, in [1], the EC50 is listed as > 195 µM (not active).

For `CC1(c2ccc(OC(F)F)cc2)NC(=O)N(CC(=O)c2ccc3c(c2)OCO3)C1=O` (stereo not drawn), the EC50 in test [5] was 5.4 µM (active).

Regarding `Cc1cc(C)nc(NC(=NC(=O)C(C)(C)C)NCCc2c[nH]c3ccccc23)n1`, the EC50 in [2] is 2.34 µM (active); in test [3], > 60 µM (not active).

On to `COc1ccc2c(c1)C=C(CN1CCN(Cc3ccccc3C)C(CCO)C1)CO2` (stereo not drawn), for which the EC50 is 0.391 µM (active) in test [2] and > 30 µM (not active) in test [3].

Regarding `O=C(CCCNC1=NS(=O)(=O)c2ccccc21)OCC(=O)c1ccc(F)c(F)c1`, the EC50 in test [5] was 7.63 µM (active).

`CCN1CC2([N+](=O)[O-])C=CC(=O)C([N+](=O)[O-])(C1)C2CC(=O)c1ccccc1` (stereo not drawn): the EC50 in [1] is > 195 µM (not active).

Regarding `Cc1nnsc1[S+]([O-])c1ccc(Cl)c(Cl)c1` (stereo not drawn), the EC50 in test [1] was 12.4 µM (active).

Take `Cc1cccc(C)c1N=C(S)N(Cc1ccccc1)Cc1cccnc1`: the values for the EC50 in test [2] and in test [3] were 1.46 µM (active) and > 60 µM (not active), respectively.

`COc1ccc(C(=O)C2CCCN(C3CSCCSC3)C2)c(OC)c1` (stereo not drawn): the AC50 in [4] was 0.939 µM (active).

For `O=C(Cc1csc(Nc2nc(S)nc3ccccc23)n1)NCCCN1CCN(c2cccc(Cl)c2)CC1`, the EC50 in [8] is > 150 µM (not active); in [9] it was 8.14 µM (active).

As to `CCC(O)(CC)C(=O)N/N=C/c1cc(Br)cc(Br)c1O`, the EC50 in [8] is 3.08 µM (active); in test [9], 2.9 µM (active). The AC50 in test [4] was 12.6 µM (active).

With `COc1ccc2nc(Cl)c(C#N)cc2c1`, in test [1], the EC50 is given as > 195 µM (not active).

`CC1CC(C)CN(S(=O)(=O)c2ccc(C(=O)Nc3nnc(C4CC4)o3)cc2)C1` (stereo not drawn): the EC50 in test [8] is 5.33 µM (active); in test [9], 1.25 µM (active).
